Source: ChEMBL document CHEMBL3046483, “Novel 2'-hydroxylfurylchalcones: synthesis and biological activity” (2010)
Active and inactive are the calls of the source. The rule behind the calls is not given here.

Legend:
[1] = tested on: Dinebra chinensis; assay: Herbicidal activity against Dinebra chinensis assessed as inhibitory rate of seedling height at 7.5 g/hm'2 relative to control; type: functional
[2] = tested on: Dinebra chinensis; assay: Herbicidal activity against Dinebra chinensis assessed as inhibitory rate of fresh weight gain at 7.5 g/hm'2 relative to control; type: functional
[3] = tested on: Sorghum bicolor; assay: Herbicidal activity against Sorghum bicolor assessed as inhibitory rate of fresh weight gain at 7.5 g/hm'2 relative to control; type: functional
[4] = tested on: Sorghum bicolor; assay: Herbicidal activity against Sorghum bicolor assessed as inhibitory rate of seedling height at 7.5 g/hm'2 relative to control; type: functional
[5] = tested on: Triticum aestivum; assay: Herbicidal activity against Triticum aestivum (wheat) assessed as inhibitory rate of fresh weight gain at 7.5 g/hm'2 relative to control; type: functional
[6] = tested on: Triticum aestivum; assay: Herbicidal activity against Triticum aestivum (wheat) assessed as inhibitory rate of seedling height at 7.5 g/hm'2 relative to control; type: functional
[7] = tested on: Amaranthus tricolor; assay: Herbicidal activity against Amaranthus tricolor assessed as inhibitory rate of fresh weight gain at 7.5 g/hm'2 relative to control; type: functional
[8] = tested on: Amaranthus tricolor; assay: Herbicidal activity against Amaranthus tricolor assessed as inhibitory rate of seedling height at 7.5 g/hm'2 relative to control; type: functional
[9] = tested on: Brassica rapa subsp. oleifera; assay: Herbicidal activity against Brassica rapa subsp. oleifera assessed as inhibitory rate of fresh weight gain at 7.5 g/hm'2 relative to control; type: functional
[10] = tested on: Brassica rapa subsp. oleifera; assay: Herbicidal activity against Brassica rapa subsp. oleifera assessed as inhibitory rate of seedling height at 7.5 g/hm'2 relative to control; type: functional
[11] = tested on: Cucumis sativus; assay: Herbicidal activity against Cucumis sativus (cucumber) assessed as inhibitory rate of fresh weight gain at 7.5 g/hm'2 relative to control; type: functional
[12] = tested on: Cucumis sativus; assay: Herbicidal activity against Cucumis sativus (cucumber) assessed as inhibitory rate of seedling height at 7.5 g/hm'2 relative to control; type: functional
[13] = tested on: Golovinomyces cichoracearum; assay: Antifungal activity against Golovinomyces cichoracearum assessed as cucumber powdery mildew control measured after 1 day; type: functional; parameters: concentration or dose not given beside the values
[14] = tested on: Pyricularia grisea; assay: Antifungal activity against Magnaporthe grisea assessed as rice blast control measured after 1 day; type: functional, organism-based
[15] = tested on: Pseudoperonospora cubensis; assay: Antifungal activity against Pseudoperonospora cubensis assessed as cucumber downy mildew control measured after 1 day; type: functional, organism-based
[16] = tested on: Botrytis cinerea; assay: Antifungal activity against Botryotinia fuckeliana assessed as cucumber grey mould control measured after 1 day; type: functional, organism-based

SMILES | inhibition (INH) [1] [%] | inhibition (INH) [2] [%] | inhibition (INH) [3] [%] | inhibition (INH) [4] [%] | inhibition (INH) [5] [%] | inhibition (INH) [6] [%] | inhibition (INH) [7] [%] | inhibition (INH) [8] [%] | inhibition (INH) [9] [%] | inhibition (INH) [10] [%] | inhibition (INH) [11] [%] | inhibition (INH) [12] [%] | Activity [13] [%] | Activity [14] | Activity [15] | Activity [16]
Cc1ccc(/C=C/C(=O)c2occc2O)cc1 | -10.1 | 47.8 | 32.3 | -3.8 | 53 | 28.1 | 72.2 | 12.5 | 45.9 | 33.3 | 39.3 | 32.7 | <10 | inactive | inactive | inactive
COc1ccc(/C=C/C(=O)c2occc2O)cc1 | 2.1 | 60.4 | – | – | 53.3 | 35.4 | 54.8 | 37.5 | 72.3 | 38.1 | 35.3 | 33.3 | <10 | inactive | inactive | inactive
N#Cc1cccc(/C=C/C(=O)c2occc2O)c1 | -12.3 | 12.4 | 24 | 34 | 36.1 | 30.5 | 31.7 | 37.5 | -5.9 | 14.3 | 13.7 | 33.3 | <10 | inactive | inactive | inactive
O=C(/C=C/c1ccc(Cl)cc1)c1occc1O | -3.9 | 52.6 | – | – | 64.6 | 41.8 | 81.2 | 37.5 | 83.5 | 52.4 | 68.2 | 36.5 | <10 | inactive | inactive | inactive
O=C(/C=C/c1ccccc1)c1occc1O | -4.4 | 31.3 | 36 | 55.3 | 46.2 | 37.2 | 32.6 | 18.8 | 60.3 | 38.1 | 1.3 | 33.7 | <10 | inactive | inactive | inactive
O=C(/C=C/c1ccccn1)c1occc1O | 6.7 | 37.4 | 11.3 | 13.6 | 40.9 | 37 | 23.9 | 18.8 | 31.8 | 52.4 | 33.1 | 31 | <10 | inactive | inactive | inactive
O=C(/C=C/c1cccc([N+](=O)[O-])c1)c1occc1O | 1.4 | 63.1 | – | – | 52.5 | 33.9 | 74.8 | 25 | 85.9 | 52.4 | 40.6 | 46.8 | <10 | inactive | inactive | inactive
O=C(/C=C/c1ccc(Br)cc1)c1occc1O | 4.2 | 66.7 | – | – | 64.2 | 42.5 | 71.7 | 37.5 | 66.7 | 52.4 | 34.5 | 40.5 | <10 | inactive | inactive | inactive
O=C(/C=C/c1ccc(F)cc1)c1occc1O | 3.5 | 19 | – | – | 40.6 | 37 | 24.3 | 6.3 | 15.1 | 19 | 17.5 | 56.8 | <10 | inactive | inactive | inactive
COC(=O)[C@@H](C)Oc1ccc(Oc2ncc(C(F)(F)F)cc2Cl)cc1 [HALOXYFOP-P-METHYL] | 100 | 100 | 100 | 100 | 100 | 100 | 21.6 | 2.1 | 17.2 | 44.4 | 31.5 | 42.1 | – | – | – | –
O=C(/C=C/c1ccc2ccccc2c1)c1occc1O | -7.4 | 55.9 | – | – | 45.4 | 27.1 | 90.6 | 37.5 | 72.9 | 52.4 | 44 | 41.3 | <10 | inactive | inactive | inactive
O=C(/C=C/c1ccc(Cl)cc1Cl)c1occc1O | -0.7 | 57.1 | – | – | 63.4 | 39.5 | 69.6 | 18.8 | 87.2 | 42.9 | 37.3 | 35.1 | <10 | inactive | inactive | inactive
